Source: ChEMBL document CHEMBL5653610, “The novel phosphodiesterase 10A inhibitor THPP-1 has antipsychotic-like effects in rat and improves cognition in rat and rhesus monkey” (Neuropharmacology, 2013)
Calls of active or inactive are those of the source. The calls are words filed in the database; no cut-off is given here.

Columns and labels:
[1] = Total drug level in Wistar Hannover rat plasma at 0.3 mg/kg, po after 2 hrs by UPLC-MS analysis; format: ADME, organism-based
[2] = Drug level in Wistar Hannover rat CSF at 3 mg/kg, po after 2 hrs by UPLC-MS analysis; format: ADME, organism-based, Cerebrospinal fluid; settings: read-out: Drug uptake
[3] = Unbound drug level in plasma of Wistar Hannover rat engaged in object retrieval detour task at 10 mg/kg, po dosed for 4 days prior to testing and on day 5 drug was administered orally 2 h prior to testing and measured after 4 hrs by UPLC-MS analysis; format: ADME, organism-based; settings: in vivo, 120 h, time 5 day
[4] = test system: Rattus norvegicus; experiment: In-vivo increase of ERK in membrane fraction of Wistar Hannover rat striatal tissues at 30 mg/kg, po after 2 hrs by Western blot analysis relative to control; format: functional, organism-based; settings: Striatum
[5] = Drug level in Wistar Hannover rat CSF at 1 mg/kg, po after 2 hrs by UPLC-MS analysis; format: ADME, organism-based, Cerebrospinal fluid; settings: read-out: Drug uptake
[6] = test system: Rattus norvegicus; experiment: Antipsychotic activity in Wistar Hannover rat assessed as increase in recognition at 1 mg/kg, po dosed 90 mins before identical objects by novel object recognition test; format: functional, organism-based
[7] = Clearance in orally dosed dog after 2 hrs by UPLC-MS analysis; format: ADME, organism-based, Canis lupus familiaris; settings: in vivo, route po
[8] = Bioavailability in orally dosed dog after 2 hrs by UPLC-MS analysis; format: ADME, organism-based, Canis lupus familiaris; settings: in vivo, route po
[9] = Drug level in Wistar Hannover rat CSF at 0.1 mg/kg, po after 2 hrs by UPLC-MS analysis; format: ADME, organism-based, Cerebrospinal fluid; settings: read-out: Drug uptake
[10] = Total drug level in Wistar Hannover rat plasma at 10 mg/kg, po after 2 hrs by UPLC-MS analysis; format: ADME, organism-based
[11] = Protein binding in orally dosed dog plasma after 2 hrs by UPLC-MS analysis; format: ADME, organism-based, Canis lupus familiaris; settings: route po, read-out: PPB (converted)
[12] = Unbound drug level in Wistar Hannover rat plasma at 30 mg/kg, po after 2 hrs by UPLC-MS analysis; format: ADME, organism-based; settings: in vivo
[13] = Bioavailability in orally dosed rat after 2 hrs by UPLC-MS analysis; format: ADME, organism-based; settings: in vivo, route po
[14] = test system: Rattus norvegicus; experiment: Antipsychotic activity in Wistar Hannover rat assessed as reduction in conditioned avoidance responding at 1 to 3 mg/kg, po dosed 120 mins before testing; format: functional, organism-based; settings: dose 1-3 mg/kg
[15] = molecular target: T1, cAMP and cAMP-inhibited cGMP 3',5'-cyclic phosphodiesterase 10A (Rattus norvegicus, UniProt Q9QYJ6); experiment: Inhibition of rat PDE10A2 assessed as inhibition of cAMP hydrolysis by fluorescence polarization assay
T1 sequence (Q9QYJ6 whole entry): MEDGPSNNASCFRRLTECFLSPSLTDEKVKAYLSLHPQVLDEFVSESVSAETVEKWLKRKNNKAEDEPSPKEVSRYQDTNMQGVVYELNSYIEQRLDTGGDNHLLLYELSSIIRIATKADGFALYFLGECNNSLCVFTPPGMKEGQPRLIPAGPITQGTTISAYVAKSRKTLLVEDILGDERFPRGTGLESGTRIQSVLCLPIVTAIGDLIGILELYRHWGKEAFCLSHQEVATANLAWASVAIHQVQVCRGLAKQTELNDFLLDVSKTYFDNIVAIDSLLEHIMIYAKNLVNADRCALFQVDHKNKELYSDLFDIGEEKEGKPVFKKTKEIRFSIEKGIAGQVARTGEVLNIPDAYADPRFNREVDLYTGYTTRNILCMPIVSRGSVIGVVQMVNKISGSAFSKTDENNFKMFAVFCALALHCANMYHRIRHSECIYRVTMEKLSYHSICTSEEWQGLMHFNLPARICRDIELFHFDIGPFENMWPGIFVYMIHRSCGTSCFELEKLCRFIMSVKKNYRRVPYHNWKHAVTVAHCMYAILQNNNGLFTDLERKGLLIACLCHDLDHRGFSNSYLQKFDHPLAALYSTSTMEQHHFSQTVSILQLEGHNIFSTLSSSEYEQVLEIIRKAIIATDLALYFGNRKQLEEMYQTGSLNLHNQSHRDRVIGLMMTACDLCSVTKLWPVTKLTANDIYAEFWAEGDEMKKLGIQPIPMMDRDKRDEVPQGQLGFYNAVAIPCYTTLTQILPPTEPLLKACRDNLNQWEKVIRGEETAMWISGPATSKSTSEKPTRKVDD

[16] = test system: Rhesus monkey; experiment: Antipsychotic activity in rhesus monkey assessed as blocking of ketamine impaired performance on difficult trials at 3 mg/kg, po dosed for 4 days prior to testing and on day 5 drug was administered orally 2 h prior to testing by object retrieval detour task; format: functional, organism-based; settings: Macaca mulatta, time 5.0 day
[17] = test system: Rattus norvegicus; experiment: In-vivo increase of pGluR1/GluR1 ratios in membrane fraction of Wistar Hannover rat striatal tissues at 3 to 30 mg/kg, po after 2 hrs by Western blot analysis; format: functional, organism-based; settings: Striatum, dose 3-30 mg/kg
[18] = test system: Rattus norvegicus; experiment: Effect on phosphorylation of proteins in other brain regions (prefrontal cortex and hippocampus) in Wistar Hannover rat at 3 to 30 mg/kg, po by Western blot analysis; format: functional, organism-based; settings: dose 3-30 mg/kg
[19] = Half life in orally dosed rhesus monkey after 4 hrs by UPLC-MS analysis; format: ADME, organism-based, Macaca mulatta; settings: in vivo, route po
[20] = Unbound drug level in plasma of Wistar Hannover rat not-engaged in object retrieval detour task at 10 mg/kg, po dosed for 4 days prior to testing and on day 5 drug was administered orally 2 h prior to testing and measured after 4 hrs by UPLC-MS analysis; format: ADME, organism-based; settings: in vivo, 120 h, time 5 day
[21] = Total drug level in plasma of Wistar Hannover rat engaged in object retrieval detour task at 3 mg/kg, po dosed for 4 days prior to testing and on day 5 drug was administered orally 2 h prior to testing and measured after 4 hrs by UPLC-MS analysis; format: ADME, organism-based; settings: time 5 day
[22] = Clearance in orally dosed rhesus monkey after 4 hrs by UPLC-MS analysis; format: ADME, organism-based, Macaca mulatta; settings: in vivo, route po
[23] = Unbound drug level in Wistar Hannover rat plasma at 10 mg/kg, po after 2 hrs by UPLC-MS analysis; format: ADME, organism-based; settings: in vivo
[24] = Unbound drug level in Wistar Hannover rat plasma at 0.3 mg/kg, po after 2 hrs by UPLC-MS analysis; format: ADME, organism-based; settings: in vivo
[25] = Total drug level in Wistar Hannover rat plasma at 1 mg/kg, po after 2 hrs by UPLC-MS analysis; format: ADME, organism-based
[26] = Total drug level in Wistar Hannover rat plasma at 0.1 mg/kg, po after 2 hrs by UPLC-MS analysis; format: ADME, organism-based
[27] = test system: Rattus norvegicus; experiment: Effect on total levels of GluR1 protein in membrane fraction of Wistar Hannover rat striatal tissues at 3 to 30 mg/kg, po by Western blot analysis; format: functional, organism-based; settings: Striatum, dose 3-30 mg/kg

Question: For `COCCOc1nc(-c2ccc(Cl)nc2)nc2c1CN(C(=O)c1ncn3ccccc13)CC2` [THPP-1], which concentration at 2 h [1] is on record?
Answer: Its concentration at 2 h is 117 nM.

Question: What about the concentration at 2 h [2] of the same compound?
Answer: Its concentration at 2 h is 8.3 nM.

Question: And the “Cp(f)” value [3]?
Answer: The value was 19 nM.

Question: And the Activity [4]?
Answer: The Activity was “Dose-Dependent Effect”.

Question: What about the concentration at 2 h [5] of the same compound?
Answer: The concentration at 2 h was 4.2 nM.

Question: What about the Activity [6] of the same compound?
Answer: The Activity was “Active”.

Question: And the CL/F [7]?
Answer: The CL/F was 3.8 mL/min/kg.

Question: What about the bioavailability [8] of the same compound?
Answer: Its bioavailability is 79%.

Question: What about the concentration at 2 h [9] of the same compound?
Answer: The concentration at 2 h was 1 nM.

Question: What about the concentration at 2 h [10] of the same compound?
Answer: Its concentration at 2 h is 1320 nM.

Question: What about the fraction unbound at 2 h [11] of the same compound?
Answer: Its fraction unbound at 2 h is 0.03.

Question: What about the “Cp(f)” value [12] of the same compound?
Answer: The value was 32.5 nM.

Question: What about the bioavailability [13] of the same compound?
Answer: The bioavailability was 47%.

Question: What about the Activity [14] of the same compound?
Answer: Its Activity is “Dose-Dependent Effect”.

Question: And the Ki [15]?
Answer: Its Ki is 1.3 nM.

Question: What about the Activity [16] of the same compound?
Answer: Its Activity is “inactive”.

Question: And the Activity [17]?
Answer: Its Activity is “Active”.

Question: And the Activity [18]?
Answer: The Activity was “inactive”.

Question: And the half-life [19]?
Answer: Its half-life is 1.4 h.

Question: And the “Cp(f)” value [20]?
Answer: The value was 34 nM.

Question: What about the concentration at 120 h [21] of the same compound?
Answer: Its concentration at 120 h is 592 nM.

Question: And the CL/F [22]?
Answer: The CL/F was 7.7 mL/min/kg.

Question: What about the “Cp(f)” value [23] of the same compound?
Answer: The value was 23.8 nM.

Question: And the “Cp(f)” value [24]?
Answer: The value was 2.1 nM.

Question: And the concentration at 2 h [25]?
Answer: Its concentration at 2 h is 270 nM.

Question: What about the concentration at 2 h [26] of the same compound?
Answer: Its concentration at 2 h is 32 nM.

Question: What about the Activity [27] of the same compound?
Answer: Its Activity is “inactive”.
